One data set deals with tested microorganisms. Nature of the data set: MIC, summary over the tested microorganisms. The format is cell-based. The following applies: two-fold serial dilution; read-out: MIC against Gram-positive bacteria. The method, boiled down: (§1)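 Broth tube dilution, two-fold, final 1000–125 μg/mL; inoculum 1 × 10^8 CFU/mL bacteria, 1 × 10^6 CFU/mL yeast (0.1 mL/5 mL); 37 °C, 24 h; MIC read as lowest conc. with no visible growth. Only agar-diffusion actives (IZ > 16 mm) tested.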

Data set [1] has as its system Escherichia coli ATCC 2592. Nature of the data set: Agar well diffusion, E. coli. In kind it is cell-based. The conditions noted are these: ATCC2592, 100 μL of 10 mg/mL in DMSO, read-out: diameter of inhibition zone, EC. The method, boiled down:
(§2)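 Wells (10 mm) in nutrient agar (bacteria, 1 × 10^8 CFU/mL) or Sabouraud dextrose agar (yeast, 1 × 10^6 CFU/mL) loaded with 100 μL of 10 mg/mL compound in DMSO. Plates incubated 24 h at 37 °C. Inhibition zone diameter (mm), mean of triplicates.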
In general terms: Agar diffusion results depend on both activity and mobility in agar.

Data set [2] deals with Saccharomyces cerevisiae local isolate. Nature of the data set: Agar well diffusion, S. cerevisiae. The format is cell-based. The following applies: read-out: diameter of inhibition zone, SC. Put shortly: as §2
In data set [3] the test system is Bacillus subtilis ATCC 6633. Put plainly: Agar well diffusion, B. subtilis. In kind it is cell-based. The conditions noted are these: ATCC6633, 100 μL of 10 mg/mL in DMSO, read-out: diameter of inhibition zone, BS. The method, boiled down: as §2
The test system of another data set is trypsin. Put plainly: Proteinase-inhibitory activity. The format is biochemical. The conditions noted are these: 250 µg/mL; mean ± SD (n = 3). Put shortly: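 Trypsin (0.06 mg per 2 mL, 20 mM Tris-HCl pH 7.4) was preincubated 5 min with test sample at 250 µg/mL, then 0.8% casein was added for 20 min. Perchloric acid stopped the reaction and supernatant absorbance was read at 280 nm. % inhibition is relative to the no-sample control, in triplicate.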

Data set [4] deals with formaldehyde-induced rat paw oedema. Put plainly: Formaldehyde-induced rat paw oedema (prophylactic). In kind it is in vivo. The conditions noted are these: 2.5 mg/kg orally, 1 h after inducing inflammation.
Data set [5] concerns Pseudomonas aeruginosa ATCC 27,953. Put plainly: MIC, two-fold serial dilution, P. aeruginosa. The format is cell-based. The conditions noted are these: ATCC27, read-out: Minimum inhibitory concentration, PA. The method, boiled down:
as §1

In data set [6] the test system is Candida albicans NRRL Y-477. Put plainly: MIC, two-fold serial dilution, C. albicans. In kind it is cell-based. The following applies: NRRLY477, read-out: Minimum inhibitory concentration, CA. Put shortly:
as §1

In the next data set the target is T1, COX-1 (Homo sapiens, UniProt P23219).
T1 construct: purchased Cayman Chemical 701070
T1 sequence (P23219 24-599): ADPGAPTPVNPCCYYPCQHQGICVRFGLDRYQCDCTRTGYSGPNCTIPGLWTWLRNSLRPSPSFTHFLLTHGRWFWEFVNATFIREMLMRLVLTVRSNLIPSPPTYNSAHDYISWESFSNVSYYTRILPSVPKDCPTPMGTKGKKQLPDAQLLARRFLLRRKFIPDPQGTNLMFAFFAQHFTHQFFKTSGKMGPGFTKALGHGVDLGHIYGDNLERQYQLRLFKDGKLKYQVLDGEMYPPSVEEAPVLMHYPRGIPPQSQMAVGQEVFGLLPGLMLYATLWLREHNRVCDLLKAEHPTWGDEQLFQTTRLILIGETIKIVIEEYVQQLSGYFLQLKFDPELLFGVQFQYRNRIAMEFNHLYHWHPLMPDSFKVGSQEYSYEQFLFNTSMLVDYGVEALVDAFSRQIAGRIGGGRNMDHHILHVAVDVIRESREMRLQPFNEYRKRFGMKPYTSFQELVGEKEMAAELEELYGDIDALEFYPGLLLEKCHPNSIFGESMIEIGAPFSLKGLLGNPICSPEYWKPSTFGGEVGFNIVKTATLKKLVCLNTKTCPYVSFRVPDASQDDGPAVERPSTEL
Nature of the data set: COX-1 inhibition, Cayman assay kit. The following applies: mean of two determinations. The format is biochemical.

This is an account of results in publication PMC7397269, “Synthesis and Evaluation of New Coumarin Derivatives as Antioxidant, Antimicrobial, and Anti-Inflammatory Agents” (Molecules, 2020).

pIC50: −log10 of the molar value. Values after ≈ are worked out from the molar mass of the structure shown.

Regarding `Cc1ccc2oc(=O)c3c(c2c1)OC(N)=C(C#N)C3c1ccco1` (racemic) [2b, (±)-2-Amino-4-(furan-2-yl)-9-methyl-5-oxo-4H,5H-pyrano[3,2-c]chromene-3-carbonitrile], the melting point – broadly, the temperature of the solid-liquid transition – was 251 to 253 °C. Moreover, the MIC in the data set on tested microorganisms was 500 to 1000 µg/mL (≈ 1560 to 3120 µM). In data set [1], the zone of inhibition (as a rule, the size of the clear area around the sample on an inoculated plate) at 10000 µg/mL stood at 18 mm. Further, the zone of inhibition at 10000 µg/mL in data set [2] was determined as 27 mm. In addition, in data set [3], the zone of inhibition at 10000 µg/mL was determined as 23 mm. For the same molecule, the “% Inhibition (proteinase)” value in the data set on trypsin stood at 74.68 ± 3.01%. The “% inhibition of paw oedema” value in data set [4] was 6.57%. In addition, the MIC in [5] was determined as 1000 µg/mL (≈ 3120 µM). The MIC in data set [6] worked out at 500 µg/mL (≈ 1560 µM). Moreover, the pIC50 (as a rule, −log10 of the IC50, conventionally taken in molar units) on COX-1 is 3.70.
